Assays:
mGluR5 receptors = target: T1, mGluR5 receptors (Rattus norvegicus, UniProt P31424); test: Cytosolic calcium studies with astrocytes (astrocyte culture test, FLIPR); assay type: cell-based; details: rat primary astrocytes; L-quisqualate (100 nM); read-out: mGluR5_FLIPRr_rpA IC50
T1 construct: endogenous in cells; host or cells: primary astrocytes from neocortex of Sprague-Dawley rat pups
Experimental: Primary astrocyte cultures are prepared from cortices of newborn rats as described by Booher and Sensenbrenner (1972, Neurobiology 2(3):97-105). Briefly, Sprague-Dawley rat pups (2-4 d old) are decapitated and neocortices are dissected, disintegrated with a nylon filter (pore size 80 μm) and carefully triturated. The cell suspension is plated on poly-D-lysine pre-coated flasks (Costar, Netherlands) and cultivated in Dulbecco's Modified Eagle's Medium (DMEM, Invitrogen, Germany) supplemented with 10% foetal calf serum (FCS, Sigma, Germany), 4 mM glutamine and 50 μg/ml gentamycin (both Biochrom, Germany) at 37° C. in a humidified atmosphere of 5% CO2/95% air for 7 d with exchanging the medium at day 2 and 6.
After 7 days in vitro (DIV), cells are shaken overnight at 250 rpm to remove oligodendrocytes and microglia. The next day, astrocytes are rinsed twice with CMF-PBS (calcium- and magnesium-free phosphate buffered saline, Biochrom, Germany), trypsinized and subplated on poly-D-lysine pre-coated 96-well plates (Greiner, Germany) at a density of 40,000 cells/well. 24 h after establishing the secondary culture the astrocytes are rinsed with PBS^++ (phosphate buffered saline, Biochrom, Germany), and fed with astrocyte-defined medium (ADM) consisting of DMEM containing 1×G^5-supplement (Invitrogen, Germany), 0.5 μg/ml heparan sulfate, and 1.5 μg/ml fibronectin (both Sigma, Germany) (Miller et al., (1993) Brain Res. 618(1):175-8). 3 d later the medium is exchanged and the cells incubated for another 2-3 d, so that at the time of experiments astrocytes are 14-15 DIV.
The increase of cytosolic calcium after stimulation with the mGluR5 agonist L-quisqualate is measured using a fluorometric imaging plate reader (FLIPR) and the Ca-Kit (both Molecular Devices). Prior to addition of agonist or antagonist the medium is aspirated and cells are loaded for 2 h at RT with 150 μl of loading buffer consisting of Ca-sensitive dye reconstituted in sodium chloride (123 mM), potassium chloride (5.4 mM), magnesium chloride (0.8 mM), calcium chloride (1.8 mM), D-glucose (15 mM), and HEPES (20 mM), pH 7.3. Subsequently, plates are transferred to FLIPR to detect calcium increase with the addition of L-quisqualate (100 nM) measured as relative fluorescence units (RFU). If antagonists are tested, these compounds are pre-incubated for 10 minutes at RT before addition of the respective agonist.
(§1) The fluorescence signal increase after addition of agonist reflects the increase of cytosolic calcium. Inconsistencies in the amount of cells per well are normalised by using the spatial uniformity correction of the FLIPR software. The mean of replicated temporal data (n=3-5) is calculated and used for graphical representation. For the evaluation of the pharmacology, the calcium changes in response to different concentrations of agonist or antagonist are determined using a maximum minus minimum (MaxMin) calculation.
(§2) All responses (RFU-values) are determined as percentage of control (=maximum response). EC50 and IC50 are calculated according the logistic equation using GraFit 5.0 (Erithacus Software, GB) or Prism 4.0 (GraphPad Software, USA).

[1] = target: T2, transmembrane allosteric modulatory sites of mGluR5 receptors in cortical membranes (Rattus norvegicus, UniProt P31424); test: [^3H]-MPEP binding assay in rat cortical membranes; details: read-out: mGluR5_M_MPEP_r_CTX_IC50
T2 construct: from tissue; host or cells: rat brain cortex membranes
Experimental: Male Sprague-Dawley rats (200-250 g) are decapitated and their brains are removed rapidly. The cortex is dissected and homogenized in 20 volumes of ice-cold 0.32 M sucrose using a glass-Teflon homogenizer. The homogenate is centrifuged at 1000×g for 10 minutes. The pellet is discarded and the supernatant centrifuged at 20,000×g for 20 minutes. The resulting pellet is re-suspended in 20 volumes of distilled water and centrifuged for 20 minutes at 8000×g. Then the supernatant and the buffy coat are centrifuged at 48,000×g for 20 minutes in the presence of 50 mM Tris-HCl, pH 8.0. The pellet is then re-suspended and centrifuged two to three more times at 48,000×g for 20 minutes in the presence of 50 mM Tris-HCl, pH 8.0. All centrifugation steps are carried out at 4° C. After resuspension in 5 volumes of 50 mM Tris-HCl, pH 8.0 the membrane suspension is frozen rapidly at −80° C.
On the day of assay the membranes are thawed and washed four times by resuspension in 50 mM Tris-HCl, pH 8.0 and centrifugation at 48,000×g for 20 minutes and finally re-suspended in 50 mM Tris-HCl, pH 7.4. The amount of protein in the final membrane preparation (500-700 μg/ml) is determined according to the method of Lowry (Lowry O. H. et al. 1951. J. Biol. Chem. 193, 256-275).
Alternatively, assays are performed with [^3H]-MMPEP (2-(3-methoxyphenylethynyl)-6-methylpyridine hydrochloride) as radioligand. The incubations are continued at room temperature for 60 minutes (equilibrium is achieved under the conditions used). […] Incubations are terminated using a Millipore filter system. The samples are rinsed twice with 4 ml of ice-cold assay buffer over glass fibre filters (Schleicher & Schuell, Germany) under a constant vacuum. Following separation and rinse, the filters are placed into scintillation liquid (5 ml Ultima Gold, Perkin Elmer, Germany) and radioactivity retained on the filters is determined with a conventional liquid scintillation counter (Canberra Packard, Germany).

[2] = target: metabotropic glutamate receptor (mGluR5) (Homo sapiens, UniProt P41594); test: Cytosolic calcium studies with stably transfected cells (FLIPR); assay type: cell-based; set-up: expressed in transfected cells; host or cells: CHO-K1 cells, IPTG-inducible expression; details: CHO-K1 cells expressing human mGluR5; agonist L-quisqualic acid; read-out: mGluR5_FLIPR_h_CHO_NAM IC50
Experimental: Cytosolic Calcium Studies with Stably Transfected Cells:
Chinese hamster ovary cells (CHO-K1 cells), stably transfected for inducible expression of a human metabotropic glutamate receptor mGluR5, are seeded into black clear bottom 96 well plates at a density of 35.000 cells per well. The standard growth medium used (Dulbecco's modified Eagle Medium, DMEM plus L-proline) contains the appropriate inducer isopropyl-β-D-thiogalactopyranosid (IPTG) to achieve optimal receptor expression. One day after seeding the growth medium is exchanged for reconstituted Ca-Kit (Molecular Devices, USA) and incubated for one hour. Ca-Kit is reconstituted in an assay buffer containing 20 mM HEPES pH 7.4, glutamic-pyruvate transaminase, pyridoxal phosphate and sodium pyruvate in Hank's balanced salt solution (HBBS). Agonistic compounds to the receptor elicit increases in cytosolic calcium which can be measured as increases in fluorescence signals by use of a fluorescence imaging plate reader (Molecular Devices).
as §1, §2

T1 sequence (P31424 21-1203): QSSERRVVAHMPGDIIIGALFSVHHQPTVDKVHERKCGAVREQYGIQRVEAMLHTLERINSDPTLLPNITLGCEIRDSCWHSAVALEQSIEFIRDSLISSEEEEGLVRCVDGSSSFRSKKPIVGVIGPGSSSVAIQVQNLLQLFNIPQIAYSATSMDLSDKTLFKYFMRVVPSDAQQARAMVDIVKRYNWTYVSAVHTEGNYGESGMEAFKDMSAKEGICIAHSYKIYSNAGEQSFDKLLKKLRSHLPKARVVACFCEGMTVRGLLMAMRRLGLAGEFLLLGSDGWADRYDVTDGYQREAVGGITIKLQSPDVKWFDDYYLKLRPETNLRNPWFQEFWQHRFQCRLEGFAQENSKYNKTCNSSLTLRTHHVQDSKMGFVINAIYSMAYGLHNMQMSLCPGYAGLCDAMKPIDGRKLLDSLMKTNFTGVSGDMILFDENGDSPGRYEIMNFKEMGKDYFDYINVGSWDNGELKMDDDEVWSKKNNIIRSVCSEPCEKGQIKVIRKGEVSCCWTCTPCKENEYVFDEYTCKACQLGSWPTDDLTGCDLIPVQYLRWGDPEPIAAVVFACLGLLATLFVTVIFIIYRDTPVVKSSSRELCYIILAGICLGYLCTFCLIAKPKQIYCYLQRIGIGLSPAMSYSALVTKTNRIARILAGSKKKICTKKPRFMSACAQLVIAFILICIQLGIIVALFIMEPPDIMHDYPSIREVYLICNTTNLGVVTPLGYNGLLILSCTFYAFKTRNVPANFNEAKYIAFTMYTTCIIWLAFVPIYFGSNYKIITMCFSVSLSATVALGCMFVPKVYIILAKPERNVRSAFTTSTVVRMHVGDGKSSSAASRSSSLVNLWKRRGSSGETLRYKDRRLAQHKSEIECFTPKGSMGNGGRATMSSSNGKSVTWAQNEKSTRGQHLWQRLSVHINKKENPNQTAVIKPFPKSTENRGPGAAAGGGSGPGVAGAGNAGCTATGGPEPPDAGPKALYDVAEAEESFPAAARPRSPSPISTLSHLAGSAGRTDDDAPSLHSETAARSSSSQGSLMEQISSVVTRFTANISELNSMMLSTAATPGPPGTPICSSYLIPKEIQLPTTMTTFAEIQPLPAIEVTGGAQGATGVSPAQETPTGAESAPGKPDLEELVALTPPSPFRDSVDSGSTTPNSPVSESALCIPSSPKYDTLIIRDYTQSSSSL
metabotropic glutamate receptor (mGluR5), sequence (P41594 21-1212): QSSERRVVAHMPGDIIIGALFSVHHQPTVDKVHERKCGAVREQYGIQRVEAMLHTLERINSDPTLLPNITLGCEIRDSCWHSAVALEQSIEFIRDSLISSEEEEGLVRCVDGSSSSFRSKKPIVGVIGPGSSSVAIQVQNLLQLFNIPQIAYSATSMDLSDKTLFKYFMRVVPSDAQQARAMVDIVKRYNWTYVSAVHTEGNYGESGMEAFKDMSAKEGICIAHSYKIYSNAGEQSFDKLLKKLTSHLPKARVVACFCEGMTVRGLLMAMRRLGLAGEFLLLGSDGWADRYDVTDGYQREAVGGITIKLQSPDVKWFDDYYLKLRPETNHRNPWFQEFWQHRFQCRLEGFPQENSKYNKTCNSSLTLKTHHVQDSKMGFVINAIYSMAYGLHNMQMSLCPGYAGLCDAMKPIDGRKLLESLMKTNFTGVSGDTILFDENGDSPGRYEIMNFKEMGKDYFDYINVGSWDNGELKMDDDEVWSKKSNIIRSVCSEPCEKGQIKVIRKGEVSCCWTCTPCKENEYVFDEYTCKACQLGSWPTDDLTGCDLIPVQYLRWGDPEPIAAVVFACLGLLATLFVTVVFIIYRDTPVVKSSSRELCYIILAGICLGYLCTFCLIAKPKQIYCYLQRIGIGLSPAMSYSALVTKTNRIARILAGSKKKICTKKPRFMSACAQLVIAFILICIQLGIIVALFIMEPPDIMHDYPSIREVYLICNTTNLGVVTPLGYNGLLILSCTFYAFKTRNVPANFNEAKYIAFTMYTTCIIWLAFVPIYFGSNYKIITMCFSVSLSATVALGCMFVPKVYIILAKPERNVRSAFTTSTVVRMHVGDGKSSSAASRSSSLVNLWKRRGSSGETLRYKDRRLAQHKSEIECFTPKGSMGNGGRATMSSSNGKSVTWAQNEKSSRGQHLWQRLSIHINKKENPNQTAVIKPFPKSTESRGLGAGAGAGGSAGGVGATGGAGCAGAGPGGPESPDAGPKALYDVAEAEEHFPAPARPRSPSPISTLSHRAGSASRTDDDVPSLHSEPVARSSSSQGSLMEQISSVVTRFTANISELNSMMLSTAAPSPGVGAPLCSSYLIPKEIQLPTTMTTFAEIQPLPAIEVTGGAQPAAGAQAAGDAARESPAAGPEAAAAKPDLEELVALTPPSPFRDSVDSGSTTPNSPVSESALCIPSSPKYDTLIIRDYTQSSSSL
T2 sequence (P31424 21-1203): as the sequence (P31424 21-1203) above

SMILES | IC50 (mGluR5 receptors) [nM] | IC50 [2] [nM] | other results
CC1CN(C(=O)c2cc3ncc(Br)cn3n2)C(C)c2ccccc21 (stereo not drawn) [drawing 448, (6-Bromo-pyrazolo[1,5-a]pyrimidin-2-yl)-(1,4-dimethyl-3,4-dihydro-1H-isoquinolin-2-yl)-methanone] | 83 | – | –
CC1c2cccc(F)c2CCN1C(=O)c1cc2ncc(Br)cn2n1 (stereo not drawn) [drawing 455, (6-Bromo-pyrazolo[1,5-a]pyrimidin-2-yl)-(5-fluoro-1-methyl-3,4-dihydro-1H-isoquinolin-2-yl)-methanone] | – | – | IC50 [1]: 10 nM
CC1c2cc(F)ccc2CCN1C(=O)c1cc2ncc(Br)cn2n1 (stereo not drawn) [drawing 444, (6-Bromo-pyrazolo[1,5-a]pyrimidin-2-yl)-(7-fluoro-1-methyl-3,4-dihydro-1H-isoquinolin-2-yl)-methanone] | 46 | – | –
CC1c2cccc(Br)c2CCN1C(=O)c1cc2ncc(Cl)cn2n1 (stereo not drawn) [drawing 451, (5-Bromo-1-methyl-3,4-dihydro-1H-isoquinolin-2-yl)-(6-chloro-pyrazolo[1,5-a]pyrimidin-2-yl)-methanone] | 65 | – | –
CC1CN(C(=O)c2cc3ncc(Cl)cn3n2)C(C)c2ccccc21 (stereo not drawn) [drawing 447, (6-Chloro-pyrazolo[1,5-a]pyrimidin-2-yl)-(1,4-dimethyl-3,4-dihydro-1H-isoquinolin-2-yl)-methanone] | 64 | – | –
COc1ccc2c(c1)CCN(C(=O)c1cc3ncc(Cl)cn3n1)C2C (stereo not drawn) [drawing 450, (6-Chloro-pyrazolo[1,5-a]pyrimidin-2-yl)-(6-methoxy-1-methyl-3,4-dihydro-1H-isoquinolin-2-yl)-methanone] | 69 | – | –
CC1c2cc(F)ccc2CCN1C(=O)c1cc2ncc(Br)cn2n1 (stereo not drawn) [drawing 434, (6-Bromo-pyrazolo[1,5-a]pyrimidin-2-yl)-(7-fluoro-1-methyl-3,4-dihydro-1H-isoquinolin-2-yl)-methanone] | – | 43.8 | –
CC1c2ccc(F)cc2CCN1C(=O)c1cc2ncc(Cl)cn2n1 (stereo not drawn) [drawing 446, (6-Chloro-pyrazolo[1,5-a]pyrimidin-2-yl)-(6-fluoro-1-methyl-3,4-dihydro-1H-isoquinolin-2-yl)-methanone] | 47 | – | –
COc1cc2c(cc1O)CCN(C(=O)c1cc3ncc(Br)cn3n1)C2C (stereo not drawn) [Example 1, (6-Bromo-pyrazolo[1,5-a]pyrimidin-2-yl)-(6-hydroxy-7-methoxy-1-methyl-3,4-dihydro-1H-isoquinolin-2-yl)-methanone] | – | 267 | –
CC1CN(C(=O)c2cc3ncc(Cl)cn3n2)C(C)c2ccccc21 (stereo not drawn) [drawing 437, (6-Chloro-pyrazolo[1,5-a]pyrimidin-2-yl)-(1,4-dimethyl-3,4-dihydro-1H-isoquinolin-2-yl)-methanone] | – | 101 | –
CC1CN(C(=O)c2cc3ncc(Br)cn3n2)C(C)c2ccccc21 (stereo not drawn) [drawing 438, (6-Bromo-pyrazolo[1,5-a]pyrimidin-2-yl)-(1,4-dimethyl-3,4-dihydro-1H-isoquinolin-2-yl)-methanone] | – | 161 | –
CC1c2cccc(Br)c2CCN1C(=O)c1cc2ncc(Cl)cn2n1 (stereo not drawn) [drawing 441, (5-Bromo-1-methyl-3,4-dihydro-1H-isoquinolin-2-yl)-(6-chloro-pyrazolo[1,5-a]pyrimidin-2-yl)-methanone] | – | 178 | –
CC1c2ccc(F)cc2CCN1C(=O)c1cc2ncc(Cl)cn2n1 (stereo not drawn) [drawing 436, (6-Chloro-pyrazolo[1,5-a]pyrimidin-2-yl)-(6-fluoro-1-methyl-3,4-dihydro-1H-isoquinolin-2-yl)-methanone] | – | 66.3 | –
COc1ccc2c(c1)CCN(C(=O)c1cc3ncc(Cl)cn3n1)C2C (stereo not drawn) [drawing 440, (6-Chloro-pyrazolo[1,5-a]pyrimidin-2-yl)-(6-methoxy-1-methyl-3,4-dihydro-1H-isoquinolin-2-yl)-methanone] | – | 155 | –
COc1ccc2c(c1)CCN(C(=O)c1cc3ncc(Br)cn3n1)C2C (stereo not drawn) [drawing 449, (6-Bromo-pyrazolo[1,5-a]pyrimidin-2-yl)-(6-methoxy-1-methyl-3,4-dihydro-1H-isoquinolin-2-yl)-methanone] | 62 | – | –
O=C(c1cc2ncc(Cl)cn2n1)N1CCc2ncc(Br)cc2C1 [drawing 442, (3-Bromo-7,8-dihydro-5H-[1,6]naphthyridin-6-yl)-(6-chloro-pyrazolo[1,5-a]pyrrimidin-2-yl)-methanone] | – | 167 | –
CC1c2cccc(F)c2CCN1C(=O)c1cc2ncc(Br)cn2n1 (stereo not drawn) [drawing 445, (6-Bromo-pyrazolo[1,5-a]pyrimidin-2-yl)-(5-fluoro-1-methyl-3,4-dihydro-1H-isoquinolin-2-yl)-methanone] | 17 | – | –
CC1c2cccc(F)c2CCN1C(=O)c1cc2ncc(Br)cn2n1 (stereo not drawn) [drawing 435, (6-Bromo-pyrazolo[1,5-a]pyrimidin-2-yl)-(5-fluoro-1-methyl-3,4-dihydro-1H-isoquinolin-2-yl)-methanone] | – | 56.5 | –
O=C(c1cc2ncc(Cl)cn2n1)N1CCc2ncc(Br)cc2C1 [drawing 452, (3-Bromo-7,8-dihydro-5H-[1,6]naphthyridin-6-yl)-(6-chloro-pyrazolo[1,5-a]pyrimiddin-2-yl)-methanone] | 48 | – | –
COc1ccc2c(c1)CCN(C(=O)c1cc3ncc(Br)cn3n1)C2C (stereo not drawn) [drawing 439, (6-Bromo-pyrazolo[1,5-a]pyrimidin-2-yl)-(6-methoxy-1-methyl-3,4-dihydro-1H-isoquinolin-2-yl)-methanone] | – | 159 | –
COc1cc2c(cc1O)CCN(C(=O)c1cc3ncc(Br)cn3n1)C2C (stereo not drawn) [drawing 443, 2-[(6-bromopyrazolo[1,5-a]pyrimidin-2-yl)carbonyl]-7-methoxy-1-methyl-1,2,3,4-tetrahydro-6-isoquinolinol] | 43 | – | –

Reference: patent US7985753B2, “Substituted pyrazolo[1,5-A]pyrimidines as metabotropic glutamate receptor modulators” (MERZ PHARMA GmbH & Co. KGaA, priority 2006, dated 2011)
